Assay results published in publication PMC10002984, “Dual PTP1B/TC-PTP Inhibitors: Biological Evaluation of 3-(Hydroxymethyl)cinnoline-4(1H)-Ones” (International Journal of Molecular Sciences, 2023).
Marks after values point to notes of the source that are not given here.

Assays:
[1] = test system: male rats with HFD-induced obesity; assay: Blood glucose, insulin and leptin levels and insulin resistance index in obese rats; format: in vivo, male Wistar rats; conditions: for Glucose, After / Insulin, After / Leptin, After / Glucose, Before / Insulin, Before / Leptin, Before: blood, M ± SEM, n = 5; for Glucose, After / Insulin, After / Leptin, After / IR (insulin resistance index), After: after five-day i.p. treatment, 7 mg/kg (1, 2), 8 mg/kg (3), 10 mg/kg (4); for Glucose, Before / Insulin, Before / Leptin, Before / IR (insulin resistance index), Before: before treatment (baseline); for IR (insulin resistance index), After / IR (insulin resistance index), Before: product of blood glucose and insulin concentrations
Protocol: (§1) Further, six groups were formed: control (Con, n = 10), obesity (Ob, n = 10), obese rats with five-day treatment with compounds 1 (Ob + 1, n = 5), 2 (Ob + 2, n = 5), 3 (Ob + 3, n = 10), and 4 (Ob + 4, n = 10). All compounds were administered in DMSO (300 µL) at a daily dose of 7 mg/kg (1 and 2), 8 mg/kg (3), and 10 mg/kg (4) (i.p.), based on the results of the preliminary experiments. The used doses of compounds 1–4, in terms of the number of moles of each compound per kg of animal body weight, were equivalent. Control and obese rats received DMSO in the same volumes (300 µL), instead of the tested compounds. During the five days of the experiment, all animals were transferred to standard food and had free access to food and drinking water. […] The test was carried out on the morning of the next day after the last (fifth) injection of the compounds or DMSO, after a 10 h fast. The rest of the animals (n = 5 in each group) were anesthetized and decapitated on the last day of the experiment. The blood and liver samples were taken to measure blood glucose and hormone levels and gene expression in the liver.
(§2) The glucose levels in the blood obtained from the tail vein were measured using a glucometer (Life Scan Johnson & Johnson, Denmark) and the test strips “One Touch Ultra” (USA). The levels of insulin and leptin in rat serum were estimated with the “Rat Insulin ELISA” (Mercodia AB, Uppsala, Sweden) and “ELISA for Leptin, Rat” (Cloud-Clone Corporation, Houston, TX, USA) kits. The GTT was carried out using a single injection of glucose (2 g/kg, i.p.) after 10 h of fasting, as described earlier. The blood glucose levels were measured before (0 min) and 15, 30, 60, and 120 min after the glucose load.

[2] = test system: TCPTP gene; assay: Gene expression in the liver of obese rats (qPCR), TCPTP gene; format: in vivo, rat; conditions: five-day treatment, vs Ob group
Protocol: as §1
The total RNA was isolated from the liver samples of rats using the “ExtractRNA Reagent” (Evrogen, Moscow, Russia), and the samples containing 1 μg of RNA were transcribed to cDNA using the random oligodeoxynucleotide primers and the “MMLV RT kit” (Evrogen, Russia). The amplification procedure was carried out in the mixture containing 10 ng of reverse transcribed product, 0.4 μM of the forward and reverse primers, and the “qPCRmix-HS SYBR + LowROX kit” (Evrogen, Russia). The amplified signals were detected using the “Applied Biosystems® 7500 Real-Time PCR System” (Life Technologies, Carlsbad, CA, USA, Thermo Fisher Scientific Inc., USA). The primers that were used to assess the expression of genes encoding the phosphatase PTP1B, TC-PTP, and SHP1 and the insulin and leptin receptors are presented in Table 4. The obtained data were calculated with the delta–delta Ct method and expressed as a fold expression, relative to the corresponding control. […]

[3] = test system: Shp1 gene; assay: Gene expression in the liver of obese rats (qPCR), Shp1 gene; format: in vivo, rat; conditions: five-day treatment
Protocol: as §1
The total RNA was isolated from the liver samples of rats using the “ExtractRNA Reagent” (Evrogen, Moscow, Russia), and the samples containing 1 μg of RNA were transcribed to cDNA using the random oligodeoxynucleotide primers and the “MMLV RT kit” (Evrogen, Russia). The amplification procedure was carried out in the mixture containing 10 ng of reverse transcribed product, 0.4 μM of the forward and reverse primers, and the “qPCRmix-HS SYBR + LowROX kit” (Evrogen, Russia). The amplified signals were detected using the “Applied Biosystems® 7500 Real-Time PCR System” (Life Technologies, Carlsbad, CA, USA, Thermo Fisher Scientific Inc., USA). The primers that were used to assess the expression of genes encoding the phosphatase PTP1B, TC-PTP, and SHP1 and the insulin and leptin receptors are presented in Table 4. The obtained data were calculated with the delta–delta Ct method and expressed as a fold expression, relative to the corresponding control. The expression of the gene encoding 18S RNA was used as an endogenous control.

[4] = test system: male rats with HFD-induced obesity; assay: Body weight and food intake in obese rats, five-day treatment; format: in vivo, male Wistar rats; conditions: five-day treatment i.p., 3 8 mg/kg/day, 4 10 mg/kg/day; for reduction of body weight in obese rats: p < 0.05 vs untreated obese animals; for reduction of the consumption of dry standard food: obese rats
Protocol: The male Wistar rats (at the start of the experiment the age of the animals was 2-months, and at the end of the experiment their age was 6-months) were obtained from the Rappolovo animal facility (Russia). The animals were housed in plastic cages, five animals in each, with a normal light–dark cycle (12 h/12 h), a temperature of 22 ± 3 °C, and free access to food and water. All experiments were approved by the Institutional Animal Care and Use Committee at the Sechenov Institute of Evolutionary Physiology and Biochemistry (St. Petersburg, Russia) (protocol No 02/02-2020, 19 February 2020) and according to The Guide for the Care and Use of Laboratory Animals and the European Communities Council Directive of 1986 (86/609/EEC). All efforts were made to minimize animal suffering and reduce the number of experimental animals.
(§3) The obesity model was induced at 16-weeks (starting at two months of age) using a high-fat diet. Control animals received standard laboratory chow pellets. The high-fat diet included supplements of 5–7 g of a fat mixture containing 52.4% pork lard, 41.7% curd, 5% liver, 0.5% L-methionine, 0.2% baker’s yeast, and 0.2% sodium chloride. After 16-weeks on a high-fat diet, the animals with increased body weight, glucose intolerance, and hyperinsulinemia, and hyperleptinemia were selected for further experiments. The glucose intolerance was estimated according to the results of the glucose tolerance test (GTT). In the GTT, 120 min after glucose loading, the blood glucose levels in obese rats were above 7 mM, and the AUC0-120 values for the curve “glucose concentration (mM)–time (minutes)” were above 30%, as compared to the average AUC0-120 values in the control group.
as §1, with “The blood and liver samples were taken to measure blood glucose and hormone levels and gene expression in the liver.” left out

[5] = test system: male rats with HFD-induced obesity; assay: Glucose tolerance test in obese rats after five-day treatment; format: in vivo, male Wistar rats; conditions: 4 10 mg/kg/day; for reduction of AUC0-120 of the glucose concentration curve vs untreated animals: GTT after five-day treatment, p < 0.05 vs Ob group; for reduction of AUC0-120 of the glucose concentration curve vs untreated animals / reduction of glucose level 120 min after glucose load vs untreated obese animals: 3 8 mg/kg/day; for reduction of glucose level 120 min after glucose load vs untreated obese animals: GTT glucose 2 g/kg i.p. after five-day treatment
Text: as §3, §1, §2

[6] = test system: PTP1B gene; assay: Gene expression in the liver of obese rats (qPCR), PTP1B gene; format: in vivo, rat; conditions: five-day treatment, vs Ob group
Protocol: (§4) Further, six groups were formed: control (Con, n = 10), obesity (Ob, n = 10), obese rats with five-day treatment with compounds 1 (Ob + 1, n = 5), 2 (Ob + 2, n = 5), 3 (Ob + 3, n = 10), and 4 (Ob + 4, n = 10). All compounds were administered in DMSO (300 µL) at a daily dose of 7 mg/kg (1 and 2), 8 mg/kg (3), and 10 mg/kg (4) (i.p.), based on the results of the preliminary experiments. The used doses of compounds 1–4, in terms of the number of moles of each compound per kg of animal body weight, were equivalent. Control and obese rats received DMSO in the same volumes (300 µL), instead of the tested compounds. During the five days of the experiment, all animals were transferred to standard food and had free access to food and drinking water. […]
(§5) The total RNA was isolated from the liver samples of rats using the “ExtractRNA Reagent” (Evrogen, Moscow, Russia), and the samples containing 1 μg of RNA were transcribed to cDNA using the random oligodeoxynucleotide primers and the “MMLV RT kit” (Evrogen, Russia). […] The amplified signals were detected using the “Applied Biosystems® 7500 Real-Time PCR System” (Life Technologies, Carlsbad, CA, USA, Thermo Fisher Scientific Inc., USA). […] The obtained data were calculated with the delta–delta Ct method and expressed as a fold expression, relative to the corresponding control. […]

[7] = test system: insulin receptor gene (InsR); assay: Gene expression in the liver of obese rats (qPCR), insulin receptor gene; format: in vivo, rat; conditions: five-day treatment, difference with Ob group not significant
Protocol: as §4, §5

[8] = test system: leptin receptor gene (LepR); assay: Gene expression in the liver of obese rats (qPCR), leptin receptor gene; format: in vivo, rat; conditions: five-day treatment, difference with Ob group not significant
Protocol: as §4, §5

expression of the gene encoding the insulin receptor in the liver [7]	expression of the gene encoding the leptin receptor in the liver [8]	SMILES	Glucose, After [1]	Insulin, After [1]	Leptin, After [1]	Glucose, Before [1]	Insulin, Before [1]	Leptin, Before [1]	IR (insulin resistance index), After [1]	IR (insulin resistance index), Before [1]	expression of the TCPTP gene in the liver [2]	expression of the Shp1 gene in the liver [3]	reduction of body weight in obese rats [4]	reduction of the consumption of dry standard food [4]	reduction of AUC0-120 of the glucose concentration curve vs untreated animals [5]	reduction of glucose level 120 min after glucose load vs untreated obese animals [5]	insulin resistance index compared to the Ob group ([1]; five-day treatment, 3 8 mg/kg/day)	expression of the PTP1B gene in the liver [6]	glucose sensitivity in the glucose tolerance test ([5]; obese rats, five-day treatment)
–	–	O=c1c(CO)n[nH]c2ccccc12 [Compound 1]	5.74 ± 0.07 ^a mM	1.11 ± 0.14 ^a ng/mL	1.72 ± 0.24 ^b,c ng/mL	5.94 ± 0.22 ^a mM	1.57 ± 0.16 ^a ng/mL	3.06 ± 0.40 ^a ng/mL	6.32 ± 0.77 ^a arb.Units	9.46 ± 1.31 ^a arb.Units	significant difference to the Ob group	increased	–	–	–	–	–	–	–
slight decrease	slight decrease	O=c1c(CO)n[nH]c2ccc(Cl)cc12 [Compound 3, 6-Chloro-3-(hydroxymethyl)cinnolin-4(1H)-one]	5.36 ± 0.31 ^a mM	0.93 ± 0.13 ^b,c ng/mL	1.52 ± 0.21 ^b,c ng/mL	5.80 ± 0.31 ^a mM	1.51 ± 0.18 ^a ng/mL	2.93 ± 0.42 ^a ng/mL	5.12 ± 0.97 ^b arb.Units	8.96 ± 1.46 ^a arb.Units	significant difference to the Ob group	did not affect	22.2 ± 4.5 g	46%	24%	20%	significantly reduced	significant difference to the Ob group	–
slight decrease	slight decrease	O=c1c(CO)n[nH]c2ccc(Br)cc12 [Compound 4, 6-Bromo-3-(hydroxymethyl)cinnolin-4(1H)-one]	5.24 ± 0.25 ^a mM	1.06 ± 0.13 ^a,c ng/mL	1.90 ± 0.16 ^a,b,c ng/mL	5.72 ± 0.30 ^a mM	1.65 ± 0.18 ^a ng/mL	3.17 ± 0.25 ^a ng/mL	5.61 ± 0.89 ^a arb.Units	9.63 ± 1.57 ^a arb.Units	significant difference to the Ob group	did not affect	22.6 ± 4.0 g	39%	20%	17%	–	significant difference to the Ob group	improved
